pIC50: −log10 of the molar value.
System: 885724-159-R-J1-PDC KRAS PDC multicell spheroid viability
Test: Anticancer human tumor 885724-159-R-J1-PDC patient-derived pancreatic adenocarcinoma cell line growth inhibition [KRAS2]
Details: for viability, T/C: stronger effect = lower value
Procedure, shortened: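 KRAS-mutant tumor cells were grown as spheroids with HUVEC endothelial cells and human MSCs as stroma. Targeted agents were tested alone and with KRAS pathway inhibitors. Doses started at or near clinical Cmax, or 10 microM, descending half-log.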

[1] = curve of first compound, second compound 0.1 µM
[2] = curve of first compound, second compound 0.316 µM
[3] = curve of first compound, second compound 1 µM
[4] = curve of first compound, second compound 3.16 µM
[5] = curve of first compound, second compound 10 µM
[6] = second compound 0.1 µM, first compound 0.0316 µM
[7] = second compound 0.1 µM, first compound 0.1 µM
[8] = second compound 0.1 µM, first compound 0.316 µM
[9] = second compound 0.1 µM, first compound 1 µM
[10] = second compound 0.1 µM, first compound 3.16 µM
[11] = second compound 0.1 µM, first compound 10 µM
[12] = second compound 0.316 µM, first compound 0.0316 µM
[13] = second compound 0.316 µM, first compound 0.1 µM
[14] = second compound 0.316 µM, first compound 0.316 µM
[15] = second compound 0.316 µM, first compound 1 µM
[16] = second compound 0.316 µM, first compound 3.16 µM
[17] = second compound 0.316 µM, first compound 10 µM
[18] = second compound 1 µM, first compound 0.0316 µM
[19] = second compound 1 µM, first compound 0.1 µM
[20] = second compound 1 µM, first compound 0.316 µM
[21] = second compound 1 µM, first compound 1 µM
[22] = second compound 1 µM, first compound 3.16 µM
[23] = second compound 1 µM, first compound 10 µM
[24] = second compound 3.16 µM, first compound 0.0316 µM
[25] = second compound 3.16 µM, first compound 0.1 µM
[26] = second compound 3.16 µM, first compound 0.316 µM
[27] = second compound 3.16 µM, first compound 1 µM
[28] = second compound 3.16 µM, first compound 3.16 µM
[29] = second compound 3.16 µM, first compound 10 µM
[30] = second compound 10 µM, first compound 0.0316 µM
[31] = second compound 10 µM, first compound 0.1 µM
[32] = second compound 10 µM, first compound 0.316 µM
[33] = second compound 10 µM, first compound 1 µM
[34] = second compound 10 µM, first compound 3.16 µM
[35] = second compound 10 µM, first compound 10 µM
[36] = curve of first compound, second compound 0.0316 µM
[37] = second compound 0.0316 µM, first compound 0.0316 µM
[38] = second compound 0.0316 µM, first compound 0.1 µM
[39] = second compound 0.0316 µM, first compound 0.316 µM
[40] = second compound 0.0316 µM, first compound 1 µM
[41] = second compound 0.0316 µM, first compound 3.16 µM
[42] = second compound 0.0316 µM, first compound 10 µM
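Further: spheroids exposed to agents for 7 days before readout.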

| Compound | pIC50 [1] | pIC50 [2] | pIC50 [3] | pIC50 [4] | viability, T/C [6] | viability, T/C [7] | viability, T/C [8] | viability, T/C [9] | viability, T/C [10] | viability, T/C [11] | viability, T/C [12] | viability, T/C [13] | viability, T/C [14] | viability, T/C [15] | viability, T/C [16] | viability, T/C [17] | viability, T/C [18] | viability, T/C [19] | viability, T/C [20] | viability, T/C [21] | also measured |
| --- | --- | --- | --- | --- | --- | --- | --- | --- | --- | --- | --- | --- | --- | --- | --- | --- | --- | --- | --- | --- | --- |
| CC(C)NCC(C(=O)N1CCN(c2ncnc3c2C(C)CC3O)CC1)c1ccc(Cl)cc1 (stereo not given) + C=CC(=O)N1CCN(c2nc(=O)n(-c3c(C)ccnc3C(C)C)c3nc(-c4c(O)cccc4F)c(F)cc23)C(C)C1 | < 5.00 | < 5.00 | < 5.00 | 5.42 | 111% | 88% | 80.3% | 77.5% | 79.4% | 64.9% | 103% | 93.6% | 74.1% | 80.5% | 77.9% | 60.8% | 105% | 92.9% | 83.5% | 79.8% | pIC50 [5]: 6.76; viability, T/C [22]: 71.8%; viability, T/C [23]: 50.1%; viability, T/C [24]: 99.9%; viability, T/C [25]: 90.2%; viability, T/C [26]: 77.8%; viability, T/C [27]: 68.3%; viability, T/C [28]: 57.9%; viability, T/C [29]: 31.8%; viability, T/C [30]: 73.5%; viability, T/C [31]: 68.8%; viability, T/C [32]: 30%; viability, T/C [33]: 11.5%; viability, T/C [34]: 18.8%; viability, T/C [35]: 5.87% |
| CC1(C)CCC(CN2CCN(c3ccc(C(=O)NS(=O)(=O)c4ccc(NCC5CCOCC5)c([N+](=O)[O-])c4)c(Oc4cnc5[nH]ccc5c4)c3)CC2)=C(c2ccc(Cl)cc2)C1 + CNCc1ccccc1-c1csc(C(C)Nc2nc(C)nc3cc(OC)c(OC)cc23)c1 | 5.17 | 5.24 | 5.28 | > 7.50 | 96.3% | 89.6% | 88.8% | 88.5% | 82.7% | 32.6% | 86.6% | 90.3% | 85.7% | 91% | 82.4% | 21% | 101% | 93.6% | 89.1% | 82.3% | pIC50 [5]: > 7.50; viability, T/C [22]: 82.9%; viability, T/C [23]: 12.1%; viability, T/C [24]: 1.12%; viability, T/C [25]: 0.55%; viability, T/C [26]: 0.55%; viability, T/C [27]: 0.79%; viability, T/C [28]: 0.62%; viability, T/C [29]: 1.03%; viability, T/C [30]: 0.42%; viability, T/C [31]: 1.23%; viability, T/C [32]: 0.37%; viability, T/C [33]: 0.2%; viability, T/C [34]: 0.17%; viability, T/C [35]: 0.2% |
| COc1cc(Nc2ncc3c(n2)-c2ccc(Cl)cc2C(c2c(F)cccc2OC)=NC3)ccc1C(=O)O + C=CC(=O)N1CCN(c2nc(OCC3CCCN3C)nc3c2CCN(c2cccc4cccc(C)c24)C3)CC1CC#N | < 5.00 | < 5.00 | < 5.00 | > 7.50 | 100% | 88.8% | 88.9% | 90.4% | 99.4% | 100% | 89.2% | 84% | 83.6% | 84.2% | 76.6% | 89% | 80% | 76.9% | 77.8% | 75.1% | pIC50 [36]: < 5.00; viability, T/C [37]: 103%; viability, T/C [38]: 92.4%; viability, T/C [39]: 87.9%; viability, T/C [40]: 92.4%; viability, T/C [41]: 93.1%; viability, T/C [42]: 105%; viability, T/C [22]: 75.7%; viability, T/C [23]: 78.2%; viability, T/C [24]: 46.9%; viability, T/C [25]: 46.3%; viability, T/C [26]: 42.3%; viability, T/C [27]: 54.5%; viability, T/C [28]: 60%; viability, T/C [29]: 44.6% |
| CC(C)NCC(C(=O)N1CCN(c2ncnc3c2C(C)CC3O)CC1)c1ccc(Cl)cc1 (stereo not given) + CNCc1ccccc1-c1csc(C(C)Nc2nc(C)nc3cc(OC)c(OC)cc23)c1 | < 5.00 | < 5.00 | 5.38 | > 7.50 | 87.4% | 82.9% | 76% | 70.8% | 76.8% | 57.1% | 87.4% | 77.3% | 67.7% | 72.7% | 78.2% | 53.1% | 94% | 76.9% | 64.9% | 66.3% | pIC50 [5]: > 7.50; viability, T/C [22]: 68.8%; viability, T/C [23]: 26.3%; viability, T/C [24]: 1.32%; viability, T/C [25]: 0.9%; viability, T/C [26]: 1.56%; viability, T/C [27]: 0.7%; viability, T/C [28]: 0.43%; viability, T/C [29]: 0.59%; viability, T/C [30]: 0.17%; viability, T/C [31]: 0.16%; viability, T/C [32]: 0.17%; viability, T/C [33]: 0.31%; viability, T/C [34]: 0.16%; viability, T/C [35]: 0.23% |
| COc1cc2nccc(Oc3ccc(NC(=O)C4(C(=O)Nc5ccc(F)cc5)CC4)cc3)c2cc1OC + C=CC(=O)N1CCN(c2nc(OCC3CCCN3C)nc3c2CCN(c2cccc4cccc(C)c24)C3)CC1CC#N | < 5.00 | < 5.00 | < 5.00 | 6.37 | 111% | 108% | 102% | 111% | 72.2% | 73% | 102% | 111% | 106% | 104% | 79.7% | 62.7% | 111% | 108% | 111% | 102% | pIC50 [36]: < 5.00; viability, T/C [37]: 109%; viability, T/C [38]: 114%; viability, T/C [39]: 113%; viability, T/C [40]: 99.5%; viability, T/C [41]: 70.4%; viability, T/C [42]: 69.9%; viability, T/C [22]: 66.6%; viability, T/C [23]: 59.6%; viability, T/C [24]: 80.1%; viability, T/C [25]: 73.7%; viability, T/C [26]: 55%; viability, T/C [27]: 33.7%; viability, T/C [28]: 12.4%; viability, T/C [29]: 0.35% |
| CCNC(=O)CC1N=C(c2ccc(Cl)cc2)c2cc(OC)ccc2-n2c(C)nnc21 (stereo not given) + COc1cc2nc(C)nc(NC(C)c3cc(N)cc(C(F)(F)F)c3)c2cc1OC1CCOC1 | 5.63 | 5.51 | 5.60 | 6.02 | 99.4% | 91.5% | 75.2% | 53.8% | 50% | 45.7% | 101% | 89.6% | 76.4% | 57% | 51.7% | 44.8% | 95.9% | 94.4% | 72% | 55.9% | pIC50 [5]: > 7.50; viability, T/C [22]: 49.1%; viability, T/C [23]: 46.9%; viability, T/C [24]: 94.6%; viability, T/C [25]: 99.6%; viability, T/C [26]: 69.1%; viability, T/C [27]: 54.3%; viability, T/C [28]: 47.8%; viability, T/C [29]: 44.6%; viability, T/C [30]: 34.8%; viability, T/C [31]: 22.4%; viability, T/C [32]: 16.5%; viability, T/C [33]: 14.1%; viability, T/C [34]: 20.1%; viability, T/C [35]: 12.4% |
| CC(=O)OC12COC1CC(O)C1(C)C(=O)C(O)C3=C(C)C(OC(=O)C(O)C(NC(=O)OC(C)(C)C)c4ccccc4)CC(O)(C(OC(=O)c4ccccc4)C21)C3(C)C (stereo not given) |  |  |  |  |  |  |  |  |  |  |  |  |  |  |  |  |  |  |  |  | viability, T/C (compound 0.01 µM): 88.4% [middle of 5 runs]; viability, T/C (compound 0.0316 µM): 93.2% [middle of 5 runs]; viability, T/C (compound 0.1 µM): 102% [middle of 5 runs]; viability, T/C (compound 1 µM): 112% [middle of 5 runs]; pIC50 (curve of compound): < 5.50 |

— PubChem BioAssay AID1963861 (Molecular Pharmacology Branch, DTP, NCI, 2024)
